Assay results as given in PubChem BioAssay (NCI).
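Five compound concentrations were applied to cells in 96-well plates for 48 hours; endpoints were derived by simple linear interpolation of the resulting dose-response curve. The concentration for 50% growth inhibition is given as GI50. At the TGI there is no net growth.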

Legend:
Assay in all cases: NCI-60 cell line screen, 48 h
ACHN renal = tested on: ACHN renal
KM12 colon = tested on: KM12 colon
SK-MEL-28 melanoma = tested on: SK-MEL-28 melanoma
EKVX NSCLC = tested on: EKVX NSCLC
SNB-19 CNS = tested on: SNB-19 CNS
SN12C renal = tested on: SN12C renal
MOLT-4 leukemia = tested on: MOLT-4 leukemia
CCRF-CEM leukemia = tested on: CCRF-CEM leukemia
SK-MEL-2 melanoma = tested on: SK-MEL-2 melanoma
BT-549 breast = tested on: BT-549 breast

SMILES	TGI (ACHN renal) [µM]	TGI (KM12 colon) [µM]	TGI (SK-MEL-28 melanoma) [µM]	TGI (EKVX NSCLC) [µM]	TGI (SNB-19 CNS) [µM]	TGI (SN12C renal) [µM]	TGI (MOLT-4 leukemia) [µM]	TGI (CCRF-CEM leukemia) [µM]	TGI (SK-MEL-2 melanoma) [µM]	GI50 (ACHN renal) [µM]	GI50 (KM12 colon) [µM]	GI50 (SK-MEL-28 melanoma) [µM]	GI50 (EKVX NSCLC) [µM]	GI50 (SNB-19 CNS) [µM]	GI50 (SN12C renal) [µM]	GI50 (MOLT-4 leukemia) [µM]	GI50 (SK-MEL-2 melanoma) [µM]	GI50 (CCRF-CEM leukemia) [µM]	GI50 (BT-549 breast) [µM]	TGI (BT-549 breast) [µM]
Cc1ccccc1NC(=O)c1ccc([N+](=O)[O-])cc1	> 100	> 100	> 100	> 100	> 100	> 100	> 100	> 100												
COC(=O)C(=O)C(C(=O)OC)C(=O)C(=O)Nc1cc(Cl)c(Cl)cc1Cl (configuration not stated)	> 100	> 100	> 100	> 100	> 100	> 100	> 100	> 100	> 100											
CCOC(=O)NC1CC2CCC1(OC)C=C2C (configuration not stated)	> 100	> 100	> 100	> 100	> 100	> 100	> 100	> 100	> 100											
C[CH2][Sn]([CH2]C)([O]C(=O)c1ccc(F)cc1)[O][Sn]([CH2]C)([CH2]C)[O]C(=O)c1ccc(F)cc1	> 100	> 100	> 100	> 100	> 100	> 100	> 100	57.6	83.3	79.8	> 100	33.9	> 100	> 100	67.2	47.1	28.5	10.7		
c1ccc2c3c(ccc2c1)-c1c(ccc2c(NCCCCN4CCCCC4)cccc12)C3	2.99	3	4.06	28	63.5	3.05	> 100		6.42	1.61	1.51	1.88	10.7	22.2	1.62	2.09	2.92			
CCCN1C(=O)CNC(=O)c2[nH]cnc21	> 100	> 100	> 100	> 100	> 100	> 100	> 100	> 100	> 100											
O=NN(CCCl)C(=O)N[C@H]1CCCC[C@@H]1Cl	> 100	> 100	> 100	> 100	> 100	> 100	> 100	43.7	> 100											
Cc1ccc(N2C(=O)C(Cl)=C(Cl)C2=O)cc1	34.1	45.2	31.5	39.2	> 100	33.7	46.5	23.4	> 100											
COC(=O)Cc1cc(=O)n2c([nH]c3ccccc32)c1C#N	> 100	> 100	> 100	> 100	> 100	> 100	> 100		> 100											
Cc1c(CC/C(=N\Nc2ccc([N+](=O)[O-])cc2[N+](=O)[O-])c2ccccc2)c2ccccc2n1C	> 100	> 100	> 100	> 100	> 100	> 100	> 64.8	> 66.6	> 100											
Cn1sc2ccccc2c1=S	26.7	25.3	22	27.6	31.4	18.2	14.1	14.8	56.5											
COc1cc(Nc2nc3cc(C(F)(F)F)ccc3nc2C)cc(OC)c1OC	20.8	21.5	25.3	30.6		23	31	24.3	23.6											
CCOCCOC[C@H]1CCCN(c2ccnc3sc(C(N)=O)c(N)c23)C1	> 100	> 100	> 100	> 100	> 100	> 100	> 100		> 100	9.95	36.6	23.5	27.9	> 100	29.8	10.1	11.1		9.35	> 100
CCOC(=O)N1C=CC(=C2C(=C3C=CN(C(=O)OCC)C=C3)C(=C3C=CN(C(=O)OCC)C=C3)C2=C2C=CN(C(=O)OCC)C=C2)C=C1	38.1	> 100	> 100	> 100	> 100	92.4	45.1		> 100											> 100
O=C(O)[C@@H](NS(=O)(=O)c1ccc([N+](=O)[O-])cc1)c1ccccc1	> 100	> 100	> 100	> 100	> 100	> 100	> 100	> 100	> 100											
O=C(Cc1ccccc1)NS(=O)(=O)c1ccccc1	> 100	> 100	> 100	> 100	> 100	> 100	> 100	> 100	> 100											
COc1ccc(C(c2cc3c(cc2O)OCO3)N2CCOCC2)cc1OC (configuration not stated)	23.5	24.9	32.9	36.7	30.4	22.3	80.8		32.5											43.8
c1ccc2c(CNCCCCCCCCCCCCNCc3cccc4ccccc34)cccc2c1	3.7	2.99	3.38	9.59		13.6	2.92	3.2	2.93											
COc1ccccc1NC(=O)C(CC(C(=O)Nc1ccccc1OC)/C(C)=N/NC(=O)c1ccccc1O)/C(C)=N/NC(=O)c1ccccc1O (configuration not stated)	> 100	> 100	> 100	> 100	> 100	> 100	> 100	> 100	> 100											
Cc1ccc(NC(=O)c2cc3ccccc3cc2O)c(C)c1.Cc1ccc(NC(=O)c2cc3ccccc3cc2[O-])c(C)c1.[Ni+2]		15.9	88.1	8.99	20.2	15.1			3.62	4.22	3.41	6.42	2.57	3.72	3.12		1.53		2.44	7.55
